The supplement of paper PMC5908809

Assays:
[1] = system: normal NK cells expanded with K562-aAPC; assay: drug sensitivity score (DSS) (DSS units); higher = more sensitive; extreme values may be limits of the assay; conditions: 72 h; IL-2 2.5 ng/mL
Description: (§1)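 Drug sensitivity and resistance testing on K562-aAPC-expanded normal NK cells: 5 concentrations (10-fold steps over a 10,000-fold range), 72 h at 37 °C, viability by CellTiter-Glo normalised to DMSO and benzethonium chloride controls; DSS from the fitted curve.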

[2] = system: YT (IL-2 2.5 ng/mL); assay: as above; conditions: 72 h
[3] = system: normal primary NK cells, pool 3 (3 donors) (IL-2 2.5 ng/mL); assay: as above; conditions: 72 h
[4] = system: KAI3 (IL-2 2.5 ng/mL); assay: as above; conditions: 72 h
[5] = system: normal primary NK cells, pool 2 (3 donors) (IL-2 2.5 ng/mL); assay: as above; conditions: 72 h
[6] = system: NKL (IL-2 2.5 ng/mL); assay: as above; conditions: 72 h
[7] = system: NK-92 (IL-2 2.5 ng/mL); assay: as above; conditions: 72 h
[8] = system: IMC-1 (IL-2 20 ng/mL); assay: as above; conditions: 72 h
[9] = system: NK-YS (IL-2 2.5 ng/mL); assay: as above; conditions: 72 h
[10] = system: SNK-6 (IL-2 2.5 ng/mL); assay: as above; conditions: 72 h
[11] = system: KHYG-1 (IL-2 2.5 ng/mL); assay: as above; conditions: 72 h
[12] = system: normal primary NK cells, pool 1 (3 donors), resting (IL-2 0 ng/mL); assay: as above; conditions: 72 h
[13] = system: DERL-7 (IL-2 2.5 ng/mL); assay: as above; conditions: 72 h
[14] = system: normal primary NK cells, pool 1 (3 donors) (IL-2 2.5 ng/mL); assay: as above; conditions: 72 h
[15] = system: normal NK cells expanded with K562-aAPC; assay: percent inhibition of viability; higher = more inhibition; conditions: 72 h, IL-2 2.5 ng/mL
Description: as §1

[16] = system: YT (IL-2 2.5 ng/mL); assay: as above; conditions: 72 h
[17] = system: normal primary NK cells, pool 3 (3 donors) (IL-2 2.5 ng/mL); assay: as above; conditions: 72 h
[18] = system: KAI3 (IL-2 2.5 ng/mL); assay: as above; conditions: 72 h
[19] = system: normal primary NK cells, pool 2 (3 donors) (IL-2 2.5 ng/mL); assay: as above; conditions: 72 h
[20] = system: NKL (IL-2 2.5 ng/mL); assay: as above; conditions: 72 h
[21] = system: NK-92 (IL-2 2.5 ng/mL); assay: as above; conditions: 72 h
[22] = system: IMC-1 (IL-2 20 ng/mL); assay: as above; conditions: 72 h
[23] = system: NK-YS (IL-2 2.5 ng/mL); assay: as above; conditions: 72 h
[24] = system: SNK-6 (IL-2 2.5 ng/mL); assay: as above; conditions: 72 h
[25] = system: KHYG-1 (IL-2 2.5 ng/mL); assay: as above; conditions: 72 h
[26] = system: normal primary NK cells, pool 1 (3 donors), resting (IL-2 0 ng/mL); assay: as above; conditions: 72 h
[27] = system: DERL-7 (IL-2 2.5 ng/mL); assay: as above; conditions: 72 h
[28] = system: normal primary NK cells, pool 1 (3 donors) (IL-2 2.5 ng/mL); assay: as above; conditions: 72 h

Cn1cncc1[C@@](N)(c1ccc(Cl)cc1)c1ccc2c(c1)c(-c1cccc(Cl)c1)cc(=O)n2C [Tipifarnib] (max concentration tested 10000 nM)
Conditions	drug sensitivity score
[1]	11.9
[2]	16.2
[3]	6.12
[4]	19.1
[5]	7.58
[6]	14.4
[7]	17.5
[8]	7.09
[9]	22.5
[10]	20.7
[11]	28.6
[12]	16.3
[13]	18.6
[14]	10.5

percent inhibition of viability [%]
Conditions	1 nM	10 nM	100 nM	1000 nM	10000 nM
[15]	-0.6	11.6	28.5	39.2	75.8
[16]	3.74	11.7	34.3	55.4	106
[17]	-5.22	13.6	17.7	17.1	53.4
[18]	6.75	19.1	47.3	58.3	85.1
[19]	-6.39	6.93	13.5	23.8	83.5
[20]	-4.94	-3.92	26.4	59.5	92.4
[21]	-0.73	9.6	37.6	61.4	109
[22]	-0.42	7.67	12.7	14.3	84.9
[23]	-3.65	20.6	59.3	66.9	90
[24]	-6.05	-1.97	53.1	67.8	79
[25]	-2.81	24	75.8	83	107
[26]	-0.67	17.8	34.2	56.4	93
[27]	1.19	15	50.5	55.8	82.4
[28]	5.62	11.4	32.4	24	96.1
